According to publication PMC6172315, “Relative Selectivity of Plant Cardenolides for Na^+/K^+-ATPases From the Monarch Butterfly and Non-resistant Insects” (Frontiers in Plant Science, 2018):
“Also recorded” adds a separate entry of the source. Read-outs that look alike come from different tables or passages of the source.

What was measured:
[1] = target: E. core-Na^+/K^+-ATPase (Euploea core, UniProt A0A5C0C9F5); assay: In vitro inhibition assay of E. core Na+/K+-ATPase (phosphate release); format: biochemical; conditions: for inhibition of E. core Na^+/K^+-ATPase compared to ouabain: EC, F-test comparison of entire dose-response curves with ouabain; for IC50: read-out: IC50 E. core- Na^+/K^+-ATPase, Na+/K+-ATPase extracted from butterfly brains
Chain of E. core-Na^+/K^+-ATPase (A0A5C0C9F5 1-1013): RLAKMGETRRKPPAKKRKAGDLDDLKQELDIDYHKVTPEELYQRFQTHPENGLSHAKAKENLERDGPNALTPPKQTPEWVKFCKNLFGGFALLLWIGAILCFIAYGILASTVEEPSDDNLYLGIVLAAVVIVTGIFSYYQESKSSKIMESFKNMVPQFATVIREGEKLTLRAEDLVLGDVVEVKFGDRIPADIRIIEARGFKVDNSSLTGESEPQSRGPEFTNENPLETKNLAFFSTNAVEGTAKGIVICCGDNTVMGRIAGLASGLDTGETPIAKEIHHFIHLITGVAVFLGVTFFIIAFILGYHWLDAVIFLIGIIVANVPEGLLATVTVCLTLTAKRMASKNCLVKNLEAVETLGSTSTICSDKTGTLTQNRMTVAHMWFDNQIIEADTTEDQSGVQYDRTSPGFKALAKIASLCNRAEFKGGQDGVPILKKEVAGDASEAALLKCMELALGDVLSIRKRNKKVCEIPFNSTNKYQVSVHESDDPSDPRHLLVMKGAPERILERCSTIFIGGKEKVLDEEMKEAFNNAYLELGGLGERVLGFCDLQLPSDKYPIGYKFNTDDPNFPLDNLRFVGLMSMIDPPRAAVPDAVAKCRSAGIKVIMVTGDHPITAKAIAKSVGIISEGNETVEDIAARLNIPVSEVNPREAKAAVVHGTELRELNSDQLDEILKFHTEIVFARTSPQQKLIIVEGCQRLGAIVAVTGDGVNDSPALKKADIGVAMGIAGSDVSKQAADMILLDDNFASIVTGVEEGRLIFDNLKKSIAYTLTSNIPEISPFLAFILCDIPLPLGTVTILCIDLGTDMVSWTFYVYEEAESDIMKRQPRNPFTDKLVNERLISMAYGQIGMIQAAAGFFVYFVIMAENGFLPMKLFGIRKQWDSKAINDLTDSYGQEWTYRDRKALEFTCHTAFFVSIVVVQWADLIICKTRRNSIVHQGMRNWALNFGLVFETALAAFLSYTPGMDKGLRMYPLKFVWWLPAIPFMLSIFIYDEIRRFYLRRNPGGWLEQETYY
Description: (§1) Danaus plexippus was caught in the field or purchased; E. core and S. gregaria were obtained commercially, with additional E. core from a laboratory colony. […] Briefly, brains dissected from butterflies stored at -80°C or recta from locusts were homogenized (individually or pooled) with an all glass grinder (Wheaton) in deionized water, frozen at -80°C, freeze-dried, and stored frozen until use. For in vitro assays, lyophilisates were dissolved in water, sonicated in an ultrasonic bath, and centrifuged to remove undissolved matter. All cardiac glycosides were tested at least with three biological replicates of Na^+/K^+-ATPase (i.e., Na^+/K^+-ATPase from genetically different specimens or pools of specimens).
(§2) Means of duplicate determinations (i.e., technical replicates) were used as data points. In consequence, each data point of a dose–response curve is the mean of at least three biological replicates based on two technical replicates, each. […] Here, technical replicates collected on the same 96-well plate were averaged and used as data points.
(§3) Stock solutions of cardiac glycosides, as well as pregnane glycosides, were prepared from crystalline compounds in DMSO. While concentrations of all other compounds were based on mass, calactin, and calotropin stock solutions were adjusted with HPLC using digitoxin as a reference.
(§4) Pairwise statistical comparisons of dose-response curves were carried out using the “compare datasets” option in OriginPro, which is based on an F-Test evaluating if the two curves are identical. Correlation analyses using log10-transformed IC50 values was also carried out with OriginPro. […] To analyze relative selectivity without a reference, we also plotted the fold differences between the IC50 values of individual cardenolides for non-adapted and adapted insect Na^+/K^+-ATPase and compared them to mammalian (lamb) Na^+/K^+-ATPase (Figure 2).

[2] = target: D. plexippus-Na^+/K^+-ATPase (Danaus plexippus, UniProt K0G7C4); assay: In vitro inhibition assay of D. plexippus Na+/K+-ATPase (phosphate release); format: biochemical; conditions: for inhibition of D. plexippus Na^+/K^+-ATPase compared to ouabain: DP, F-test comparison of entire dose-response curves with ouabain; for fold difference between IC50 values, non-adapted (E. core/S. gregaria) vs adapted (D. plexippus) insect Na^+/K^+-ATPase: Figure 2, last number, S. gregaria values used for ouabain and digitoxigenin; for IC50: read-out: IC50 D. plexippus- Na^+/K^+-ATPase, Na+/K+-ATPase extracted from butterfly brains
Chain of D. plexippus-Na^+/K^+-ATPase (K0G7C4 1-1009): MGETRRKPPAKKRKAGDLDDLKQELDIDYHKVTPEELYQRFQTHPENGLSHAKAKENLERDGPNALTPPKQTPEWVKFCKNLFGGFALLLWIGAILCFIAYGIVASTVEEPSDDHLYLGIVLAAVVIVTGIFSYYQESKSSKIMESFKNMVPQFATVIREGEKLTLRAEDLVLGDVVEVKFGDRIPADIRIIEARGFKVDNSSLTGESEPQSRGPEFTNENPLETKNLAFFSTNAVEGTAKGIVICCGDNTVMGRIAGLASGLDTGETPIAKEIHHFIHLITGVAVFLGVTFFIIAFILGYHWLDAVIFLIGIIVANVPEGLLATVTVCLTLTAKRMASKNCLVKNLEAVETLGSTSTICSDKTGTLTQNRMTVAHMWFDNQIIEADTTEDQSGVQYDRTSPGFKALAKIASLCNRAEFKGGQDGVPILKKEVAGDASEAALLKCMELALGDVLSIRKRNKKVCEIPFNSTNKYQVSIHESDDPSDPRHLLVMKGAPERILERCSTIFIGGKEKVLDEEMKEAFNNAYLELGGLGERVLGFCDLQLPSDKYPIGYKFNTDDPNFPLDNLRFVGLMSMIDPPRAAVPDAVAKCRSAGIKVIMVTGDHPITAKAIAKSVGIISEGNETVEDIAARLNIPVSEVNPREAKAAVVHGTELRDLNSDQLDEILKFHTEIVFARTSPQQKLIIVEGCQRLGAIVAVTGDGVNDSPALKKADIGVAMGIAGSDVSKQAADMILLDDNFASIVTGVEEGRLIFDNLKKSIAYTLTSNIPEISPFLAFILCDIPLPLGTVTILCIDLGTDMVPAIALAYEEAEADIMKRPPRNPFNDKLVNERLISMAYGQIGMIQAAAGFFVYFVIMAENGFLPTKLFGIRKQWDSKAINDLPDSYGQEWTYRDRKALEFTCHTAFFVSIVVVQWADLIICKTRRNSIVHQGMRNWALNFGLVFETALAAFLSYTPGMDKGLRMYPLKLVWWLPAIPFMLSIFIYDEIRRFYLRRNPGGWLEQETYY
Description: as §1, §2, §3, §4

[3] = system: porcine Na^+/K^+-ATPase; assay: In vitro inhibition assay of porcine Na+/K+-ATPase; format: biochemical, pig; conditions: for inhibition of porcine Na^+/K^+-ATPase compared to ouabain: F-test comparison of dose-response curves with ouabain; for IC50: purified from pig brain, 0.01 U/ml in the assay
Description: Lyophilized Na^+/K^+-ATPase was dissolved in water to a concentration of 1 U/ml, stored at -80°C in single-use aliquots and diluted with H2O to 0.05 U/ml for use in the in vitro assay (final concentration in the assay 0.01 U/ml).
as §4

[4] = target: S. gregaria-Na^+/K^+-ATPase (Schistocerca gregaria, UniProt A0A8E5JSN5); format: biochemical
Chain of S. gregaria-Na^+/K^+-ATPase (A0A8E5JSN5 1-1039): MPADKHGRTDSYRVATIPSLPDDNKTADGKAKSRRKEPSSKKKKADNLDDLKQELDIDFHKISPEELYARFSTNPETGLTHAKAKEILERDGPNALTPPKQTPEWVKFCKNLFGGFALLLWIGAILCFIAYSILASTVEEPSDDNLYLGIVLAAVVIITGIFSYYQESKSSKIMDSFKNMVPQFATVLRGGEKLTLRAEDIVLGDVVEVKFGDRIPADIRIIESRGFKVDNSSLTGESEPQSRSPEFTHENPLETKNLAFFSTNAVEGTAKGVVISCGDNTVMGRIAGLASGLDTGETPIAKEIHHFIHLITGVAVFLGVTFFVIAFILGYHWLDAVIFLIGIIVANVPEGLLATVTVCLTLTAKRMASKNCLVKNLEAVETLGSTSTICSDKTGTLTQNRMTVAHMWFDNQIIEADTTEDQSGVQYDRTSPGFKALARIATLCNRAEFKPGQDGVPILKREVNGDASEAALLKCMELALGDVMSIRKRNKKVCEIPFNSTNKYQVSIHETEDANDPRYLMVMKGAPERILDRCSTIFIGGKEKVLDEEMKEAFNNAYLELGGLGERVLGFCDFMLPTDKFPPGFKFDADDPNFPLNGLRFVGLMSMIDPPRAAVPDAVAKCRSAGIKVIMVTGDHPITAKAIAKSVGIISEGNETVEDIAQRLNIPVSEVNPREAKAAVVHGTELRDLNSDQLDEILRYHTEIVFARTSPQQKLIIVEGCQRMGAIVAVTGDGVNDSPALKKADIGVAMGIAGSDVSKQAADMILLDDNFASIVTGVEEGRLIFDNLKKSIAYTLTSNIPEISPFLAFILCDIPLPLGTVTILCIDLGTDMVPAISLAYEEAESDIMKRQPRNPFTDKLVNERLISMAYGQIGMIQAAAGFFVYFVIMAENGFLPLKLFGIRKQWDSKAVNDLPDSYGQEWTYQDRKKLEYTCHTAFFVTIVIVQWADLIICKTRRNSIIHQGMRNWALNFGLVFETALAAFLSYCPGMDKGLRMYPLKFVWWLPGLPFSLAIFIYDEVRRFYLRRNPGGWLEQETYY
Description: as §1, §2, §3, §4

[5] = system: lamb Na^+/K^+-ATPase; assay: Fold differences of IC50 between lamb and insect Na+/K+-ATPases; format: biochemical; conditions: lamb IC50 inferred from ref Paula et al., 2005; for fold difference between IC50 values, lamb vs adapted insect (D. plexippus) Na^+/K^+-ATPase: Figure 2, first number; for fold difference between IC50 values, lamb vs non-adapted insect (E. core/S. gregaria) Na^+/K^+-ATPase: Figure 2, second number
Description: as §4

[6] = physchem; conditions: aqueous with cosolvent or surfactant or cyclodextrin, kinetic from dmso stock
Description: as §3

[7] = SG; F-test comparison of entire dose-response curves with ouabain
[8] = read-out: IC50 S. gregaria- Na^+/K^+-ATPase; Na+/K+-ATPase extracted from locust recta
[9] = Na+/K+-ATPase extracted from locust recta; read-out: IC50 S. gregaria- Na^+/K^+-ATPase

Compound | inhibition of E. core Na^+/K^+-ATPase compared to ouabain [1] | IC50 [1] [µM] | inhibition of D. plexippus Na^+/K^+-ATPase compared to ouabain [2] | fold difference between IC50 values, non-adapted (E. core/S. gregaria) vs adapted (D. plexippus) insect Na^+/K^+-ATPase [2] [x] | IC50 [2] [µM] | inhibition of porcine Na^+/K^+-ATPase compared to ouabain [3] | IC50 [3] [µM] | inhibition of S. gregaria Na^+/K^+-ATPase compared to ouabain [4, 7] | IC50 [4, 8] [µM] | IC50 [4, 9] [µM] | fold difference between IC50 values, lamb vs adapted insect (D. plexippus) Na^+/K^+-ATPase [5] [x] | fold difference between IC50 values, lamb vs non-adapted insect (E. core/S. gregaria) Na^+/K^+-ATPase [5] [x] | inhibition by glycoside relative to corresponding genin (strophanthidin) on D. plexippus-Na^+/K^+-ATPase ([2]; cymarin vs strophanthidin) | solubility [6] [µM]
C[C@]12CC[C@H](O[C@@H]3O[C@H](CO[C@@H]4O[C@H](CO)[C@@H](O)[C@H](O)[C@H]4O)[C@@H](O)[C@H](O)[C@H]3O)C[C@@H]1CC[C@@H]1[C@@H]2CC[C@]2(C)[C@@H](C3=CC(=O)OC3)CC[C@]12O [uzarin] | far weaker inhibition than ouabain; also recorded: < ouabain; F2,7 = 39.97, p < 0.001 | 2.91 | substantially stronger inhibition than ouabain; also recorded: > ouabain; F2,7 = 70.04, p < 0.001 | 6 | 18.8 | not different from the effect of ouabain | 0.452 | – | – | – | – | – | – | –
C[C@]12CC[C@H](O[C@@H]3O[C@H](CO)[C@@H](O)[C@H](O)[C@H]3O)C[C@@H]1CC[C@@H]1[C@@H]2CC[C@]2(C)[C@@H](C3=CC(=O)OC3)CC[C@]12O [desglucouzarin] | nearly the same inhibitory effect as ouabain | 0.62 | strongly inhibitory effect; also recorded: > ouabain; F2,7 = 455.90, p < 0.001 | 10 | 6.42 | more strongly than ouabain | 0.268 | – | – | – | – | – | – | –
C[C@H]1O[C@@H](O[C@H]2[C@@H](O)C[C@H](O[C@H]3[C@@H](O)C[C@H](O[C@H]4CC[C@@]5(C)[C@H](CC[C@@H]6[C@@H]5CC[C@]5(C)[C@@H](C7=CC(=O)OC7)CC[C@]65O)C4)O[C@@H]3C)O[C@@H]2C)C[C@H](O)[C@@H]1O [digitoxin, reference compound] | – | – | > ouabain; F2,6 = 116.84, p < 0.001 | – | 14.8 | – | – | = ouabain; F2,6 = 5.07, p = 0.05 | 1.37 | – | – | – | – | –
CC(=O)O[C@H]1C[C@H](O[C@H]2[C@@H](O)C[C@H](O[C@H]3[C@@H](O)C[C@H](O[C@H]4CC[C@@]5(C)[C@H](CC[C@@H]6[C@@H]5C[C@@H](O)[C@]5(C)[C@@H](C7=CC(=O)OC7)CC[C@]65O)C4)O[C@@H]3C)O[C@@H]2C)O[C@H](C)[C@H]1O[C@@H]1O[C@H](CO)[C@@H](O)[C@H](O)[C@H]1O [lanatoside C, reference compound] | – | – | < ouabain; F2,6 = 17.23, p = 0.003 | 52 | 644 | – | – | < ouabain; F2,6 = 82.96, p < 0.001 | – | 12.4 | 1564 | 30 | – | –
CO[C@H]1C[C@H](O[C@H]2CC[C@]3(C=O)[C@H]4CC[C@]5(C)[C@@H](C6=CC(=O)OC6)CC[C@]5(O)[C@@H]4CC[C@]3(O)C2)O[C@H](C)[C@H]1O [cymarin] | – | – | > ouabain; F2,6 = 514.53, p < 0.001 | 21 | 6.99 | – | – | > ouabain; F2,6 = 6.37, p = 0.03 | – | 0.334 | 36 | 2 | ninefold | –
C[C@]12CC[C@H](O)C[C@H]1CC[C@@H]1[C@@H]2CC[C@]2(C)[C@@H](C3=CC(=O)OC3)CC[C@]12O [digitoxigenin] | < ouabain; F2,6 = 180.27, p < 0.001 | 4.12 | > ouabain; F2,6 = 54.05, p < 0.001 | – | 24.8 | – | – | < ouabain; F2,6 = 17.5, p = 0.003 | 2.73 | – | – | – | – | –
C[C@@H]1C[C@H](O)[C@]2(O)O[C@@H]3C[C@@]4(C=O)[C@@H](CC[C@@H]5[C@@H]4CC[C@]4(C)[C@@H](C6=CC(=O)OC6)CC[C@]54O)C[C@H]3O[C@@H]2O1 [calotropin] | > ouabain; F2,7 = 54.31, p < 0.001 | 0.323 | > ouabain; F2,7 = 154.4, p < 0.001 | 17 | 5.36 | – | – | – | – | – | – | – | – | –
C[C@]12CC[C@H]3[C@@H](CC[C@]4(O)C[C@@H](O)CC[C@]34C=O)[C@@]1(O)CC[C@@H]2C1=CC(=O)OC1 [strophanthidin] | – | – | > ouabain; F2,6 = 9.41, p = 0.01 | – | 64.8 | – | – | – | – | – | – | – | – | –
C[C@@H]1C[C@@H](O)[C@]2(O)O[C@@H]3C[C@@]4(C=O)[C@@H](CC[C@@H]5[C@@H]4CC[C@]4(C)[C@@H](C6=CC(=O)OC6)CC[C@]54O)C[C@H]3O[C@@H]2O1 [calactin] | more potently than ouabain; also recorded: > ouabain; F2,7 = 496.50, p < 0.001 | 0.092 | more potently than ouabain; also recorded: > ouabain; F2,7 = 4706.35, p < 0.001 | 23 | 2.15 | – | – | – | – | – | – | – | – | –
CO[C@H]1C[C@H](O[C@H]2CC[C@@]3(C)[C@H](CC[C@@H]4[C@@H]3CC[C@]3(C)[C@@H](C5=CC(=O)OC5)[C@@H](OC(C)=O)C[C@]43O)C2)O[C@@H](C)[C@@H]1O [oleandrin] | – | – | > ouabain; F2,6 = 252.64, p < 0.001 | – | 3.68 | – | – | = ouabain; F2,6 = 2.24, p = 0.19 | 0.834 | – | – | – | – | < 100
CC12CC(O)C3C(CCC4(O)CC(O)CC(O)C34CO)C1(O)CCC2C1=CC(=O)OC1 (stereo not shown) [ouabagenin] | – | – | < ouabain; F2,6 = 80.0, p < 0.001 | 41 | 841 | – | – | < ouabain; F2,6 = 201.2, p < 0.001 | – | 20.4 | 1821 | 44 | – | –
C[C@]12CC[C@H](O)C[C@H]1CC[C@@H]1[C@@H]2C[C@@H](O)[C@]2(C)[C@@H](C3=CC(=O)OC3)CC[C@]12O [digoxigenin] | – | – | < ouabain; F2,6 = 30.1, p < 0.001 | – | 379 | – | – | < ouabain; F2,6 = 151.91, p < 0.001 | 11.8 | – | – | – | – | –
C[C@]12CC[C@H](O)C[C@H]1CC[C@@H]1[C@@H]2CC[C@]2(C)[C@@H](C3=CC(=O)OC3)[C@@H](O)C[C@]12O [gitoxigenin] | – | – | – | 7 | 256 | – | – | much lower extent compared to ouabain | – | 37.8 | 1633 | 241 | – | –
C[C@@H]1O[C@@H](O[C@H]2C[C@@H](O)[C@]3(CO)[C@H]4[C@H](O)C[C@]5(C)[C@@H](C6=CC(=O)OC6)CC[C@]5(O)[C@@H]4CC[C@]3(O)C2)[C@H](O)[C@H](O)[C@H]1O [ouabain, reference compound] | – | 1.03 | – | – | 94 | – | 0.486 | – | 0.997 | – | – | – | – | –
C[C@@H]1O[C@@H](O[C@H]2CC[C@]3(C=O)[C@H]4CC[C@]5(C)[C@@H](c6ccc(=O)oc6)CC[C@]5(O)[C@@H]4CC[C@]3(O)C2)[C@H](O)[C@H](O)[C@H]1O[C@@H]1O[C@H](CO)[C@@H](O)[C@H](O)[C@H]1O [hellebrin] | – | – | > ouabain; F2,6 = 1420.98, p < 0.001 | – | 0.842 | – | – | – | – | – | – | – | – | –
